Assay results: patent publication US20170057838A1, “WATER CAPPING OF TAILINGS” (priority 2015, published 2017)

Test system: One-year old yellow perch
Assay: yellow perch gill structure after three weeks exposure
Type: in vivo
Conditions: added to extract solution
Excerpt: In an attempt to establish a causative link with chemical constituents of test pond water caps, laboratory tests examined the effect of exposure to a naphthenic acid extract from fresh WIP MFT release water on perch gill structure. […] Sulphate and naphthenic acids comprise two of the main constituents of concern in capping water and may act in concert to induce gill damage. The resulting reduced gill surface area likely led to restricted transport of both naphthenic acids and oxygen into the perch body. […] The gill aneurysms presumably occur because the outer layer of the gill has been damaged.

## O=S(=O)([O-])[O-].[Na+].[Na+] [sodium sulphate]
  effect of addition to the naphthenic acid extract solution on gill toxicity: exacerbated the expression of toxicity
